The results in this text go back to US12539292B2, “BRM targeting compounds and associated methods of use” (Arvinas Operations, Inc., priority 2018, dated 2026).

For the test, the target named is T1, BRM (Homo sapiens, UniProt P51531).
T1 construct: In-Cell Western Screen of BRM Degradation in SW1573 Cells; endogenous in cells; host or cells: SW1573
Nature of the test: In-cell Western screen of BRM degradation in SW1573 cells (Dmax and DC50). The class given is cell-based. In a few lines:
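SW1573 cells were treated with compound overnight (18-20 h; final DMSO 0.1%), then fixed in 4% PFA, permeabilized with Triton X-100 and blocked. BRM was detected by in-cell Western using 800 nm anti-rabbit and 680 nm anti-mouse secondaries, and Dmax and DC50 were derived from the LI-COR Odyssey signal.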

The mark [1] stands for this setting: BRM degradation, SW1573 cells, read-out: DC50.
The mark [2] stands for this setting: BRM degradation, SW1573 cells, tested at the top concentration of between 0.3 and 10 μM, read-out: Dmax (%) (% degraded).
[3] abbreviates: SW1573, % degraded, when tested at the top concentration of between 0.3 and 10 μM, read-out: BRM Dmax (%).
Setting [4] is: target protein degradation, read-out: BRM DC50.
Where [5] appears, read: BRM degradation, SW1573 cells, Table 2D, read-out: *DC50.
[6] abbreviates: BRM degradation, SW1573 cells, Table 2D, read-out: **Dmax (%) (% degraded).
Setting [7] is: BRM degradation, SW1573 cells, read-out: Dmax (% degraded).

Broadly, the DC50 is the concentration at which degradation of the target reaches its halfway point. As a reminder, the Dmax is the largest share of the target that was removed.

Each structure is given as a SMILES string. Like-named read-outs stand apart in the source and are kept apart here. Some results are limits rather than exact numbers.

T1 sequence (P51531 whole entry): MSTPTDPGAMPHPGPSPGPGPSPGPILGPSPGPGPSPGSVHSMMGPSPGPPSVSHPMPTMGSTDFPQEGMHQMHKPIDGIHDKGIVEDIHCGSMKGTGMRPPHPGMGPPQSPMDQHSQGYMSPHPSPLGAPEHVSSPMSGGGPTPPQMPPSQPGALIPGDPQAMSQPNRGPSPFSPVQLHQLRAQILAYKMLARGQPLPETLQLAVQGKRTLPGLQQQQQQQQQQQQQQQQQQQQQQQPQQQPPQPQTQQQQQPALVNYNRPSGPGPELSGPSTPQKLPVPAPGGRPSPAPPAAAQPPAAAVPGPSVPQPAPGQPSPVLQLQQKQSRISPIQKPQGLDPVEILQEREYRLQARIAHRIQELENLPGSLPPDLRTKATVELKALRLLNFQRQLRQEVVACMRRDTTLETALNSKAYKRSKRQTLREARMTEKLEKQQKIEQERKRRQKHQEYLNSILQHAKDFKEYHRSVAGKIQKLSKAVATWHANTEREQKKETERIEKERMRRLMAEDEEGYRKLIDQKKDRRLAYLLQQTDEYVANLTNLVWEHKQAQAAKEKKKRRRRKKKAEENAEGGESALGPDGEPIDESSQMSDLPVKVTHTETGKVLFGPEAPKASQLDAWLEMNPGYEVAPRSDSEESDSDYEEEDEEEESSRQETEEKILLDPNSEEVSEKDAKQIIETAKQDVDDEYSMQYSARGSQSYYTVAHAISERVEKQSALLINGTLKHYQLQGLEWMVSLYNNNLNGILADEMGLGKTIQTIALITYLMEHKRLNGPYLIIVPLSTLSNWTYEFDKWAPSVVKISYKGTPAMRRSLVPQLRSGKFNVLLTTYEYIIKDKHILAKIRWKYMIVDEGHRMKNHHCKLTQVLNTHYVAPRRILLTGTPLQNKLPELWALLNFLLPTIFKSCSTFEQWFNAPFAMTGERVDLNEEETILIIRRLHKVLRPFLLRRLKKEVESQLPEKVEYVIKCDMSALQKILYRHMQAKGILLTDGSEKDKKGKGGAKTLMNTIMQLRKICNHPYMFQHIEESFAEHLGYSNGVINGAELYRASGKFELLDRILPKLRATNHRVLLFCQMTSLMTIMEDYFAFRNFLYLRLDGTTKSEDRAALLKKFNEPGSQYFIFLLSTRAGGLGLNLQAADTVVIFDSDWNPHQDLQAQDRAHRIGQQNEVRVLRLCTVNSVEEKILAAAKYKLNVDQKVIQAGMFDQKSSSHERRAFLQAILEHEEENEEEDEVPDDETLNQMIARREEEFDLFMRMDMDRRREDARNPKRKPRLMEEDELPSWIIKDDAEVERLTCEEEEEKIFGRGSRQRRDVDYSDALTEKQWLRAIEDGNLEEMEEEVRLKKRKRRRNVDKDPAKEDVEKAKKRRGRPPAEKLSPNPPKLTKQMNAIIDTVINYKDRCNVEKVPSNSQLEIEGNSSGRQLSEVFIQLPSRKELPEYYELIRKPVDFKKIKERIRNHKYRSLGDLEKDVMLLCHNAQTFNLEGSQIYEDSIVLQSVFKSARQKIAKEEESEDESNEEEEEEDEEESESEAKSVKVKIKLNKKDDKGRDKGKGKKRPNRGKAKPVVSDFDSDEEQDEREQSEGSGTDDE

As to `CC[C@H](NC(=O)[C@@H]1C[C@@H](O)CN1C(=O)C(c1cc(OCCN2CCC(O[C@H]3C[C@H](Oc4cc(N5C6CCC5CN(c5cc(-c7ccccc7O)nnc5N)C6)ccn4)C3)CC2)no1)C(C)C)c1ccc(-c2scnc2C)cc1` (stereo partly drawn) [compound 351, (2S,4R)-1-((2R)-2-(3-(2-(4-((1r,3R)-3-((4-(3-(3-amino-6-(2-hydroxyphenyl)pyridazin-4-yl)-3,8-diazabicyclo[3.2.1]octan-8-yl)pyridin-2-yl)oxy)cyclobutoxy)piperidin-1-yl)ethoxy)isoxazol-5-yl)-3-methylbutanoyl)-4-hydroxy-N-((S)-1-(4-(4-methylthiazol-5-yl)phenyl)propyl)pyrrolidine-2-carboxamide], under setting [1], the DC50 is below 2.5 nM. Further, under setting [2], the Dmax was above 75%.

Turning to `Cc1ncsc1-c1ccc([C@H](C)NC(=O)[C@@H]2C[C@@H](O)CN2C(=O)[C@@H](c2cc(OCC[C@H]3CC[C@H](O[C@H]4C[C@H](Oc5cc(N6C7CCC6CN(c6cc(-c8ccccc8O)nnc6N)C7)ccn5)C4)CC3)no2)C(C)C)cc1` [compound 488, (2S,4R)-1-((2R)-2-(3-(2-((1R,4R)-4-((1r,3R)-3-((4-(3-(3-amino-6-(2-hydroxyphenyl)pyridazin-4-yl)-3,8-diazabicyclo[3.2.1]octan-8-yl)pyridin-2-yl)oxy)cyclobutoxy)cyclohexyl)ethoxy)isoxazol-5-yl)-3-methylbutanoyl)-4-hydroxy-N-((S)-1-(4-(4-methylthiazol-5-yl)phenyl)ethyl)pyrrolidine-2-carboxamide], the Dmax under setting [3] is above 75%. Also, the 50% degradation concentration (DC50) under setting [4] was below 2.5 nM.

For `Cc1nccn1-c1ccc([C@H](C)NC(=O)[C@@H]2C[C@@H](O)CN2C(=O)[C@H](c2cc(OCC#Cc3ncc(O[C@H]4C[C@H](Oc5cc(N6C7CCC6CN(c6cc(-c8ccccc8O)nnc6N)C7)ccn5)C4)cn3)no2)C(C)C)cc1` [compound 393, (2S,4R)-1-((2S)-2-(3-((3-(5-((1r,3S)-3-((4-(3-(3-amino-6-(2-hydroxyphenyl)pyridazin-4-yl)-3,8-diazabicyclo[3.2.1]octan-8-yl)pyridin-2-yl)oxy)cyclobutoxy)pyrimidin-2-yl)prop-2-yn-1-yl)oxy)isoxazol-5-yl)-3-methylbutanoyl)-4-hydroxy-N-((S)-1-(4-(2-methyl-1H-imidazol-1-yl)phenyl)ethyl)pyrrolidine-2-carboxamide], the Dmax under setting [3] is above 75%. The DC50 under setting [4] was above 30 nM.

On to `Cc1cc([C@H](C(=O)N2C[C@H](O)C[C@H]2C(=O)N[C@@H](C)c2ccc(-c3scnc3C)cc2)[C@H](C)COCCn2cc(-c3cc(-c4ccccc4O)nnc3N)cn2)on1` [compound 538, (2S,4R)-1-((2R,3S)-4-(2-(4-(3-amino-6-(2-hydroxyphenyl)pyridazin-4-yl)-1H-pyrazol-1-yl)ethoxy)-3-methyl-2-(3-methylisoxazol-5-yl)butanoyl)-4-hydroxy-N-((S)-1-(4-(4-methylthiazol-5-yl)phenyl)ethyl)pyrrolidine-2-carboxamide], for which the DC50 under setting [5] was above 30 nM.

Consider `Cc1ncsc1-c1ccc([C@H](C)NC(=O)[C@@H]2C[C@@H](O)CN2C(=O)[C@@H](c2cc(OCCN3CCC(O[C@H]4C[C@H](OCCn5cc(-c6cc(-c7ccccc7O)nnc6N)cn5)C4)CC3)no2)C(C)C)cc1` [compound 189, (2S,4R)-1-((R)-2-(3-(2-(4-((1r,3R)-3-(2-(4-(3-amino-6-(2-hydroxyphenyl)pyridazin-4-yl)-1H-pyrazol-1-yl)ethoxy)cyclobutoxy)piperidin-1-yl)ethoxy)isoxazol-5-yl)-3-methylbutanoyl)-4-hydroxy-N-((S)-1-(4-(4-methylthiazol-5-yl)phenyl)ethyl)pyrrolidine-2-carboxamide], for which the DC50 under setting [1] is below 2.5 nM. The Dmax under setting [2] was above 75%.

With `Cc1ncsc1-c1ccc([C@H](C)NC(=O)[C@@H]2C[C@@H](O)CN2C(=O)[C@@H](c2cc(OCCN3CCC(O[C@H]4C[C@H](Oc5cc(N6C7CCC6CN(c6cc(-c8ccccc8O)nnc6N)C7)ccn5)C4)CC3)no2)C(C)C)nc1` [compound 368, (2S,4R)-1-((2R)-2-(3-(2-(4-((1r,3R)-3-((4-(3-(3-amino-6-(2-hydroxyphenyl)pyridazin-4-yl)-3,8-diazabicyclo[3.2.1]octan-8-yl)pyridin-2-yl)oxy)cyclobutoxy)piperidin-1-yl)ethoxy)isoxazol-5-yl)-3-methylbutanoyl)-4-hydroxy-N-((S)-1-(5-(4-methylthiazol-5-yl)pyridin-2-yl)ethyl)pyrrolidine-2-carboxamide], the Dmax under setting [3] is above 75%. Also, the DC50 under setting [4] is below 2.5 nM.

As to `Cc1ncsc1-c1ccc([C@H](C)NC(=O)[C@@H]2C[C@@H](O)CN2C(=O)[C@@H](c2cc(OCCN3CCC(O[C@H]4C[C@H](C#C[C@@H](C)n5cc(-c6cc(-c7ccccc7O)nnc6N)cn5)C4)CC3)no2)C(C)C)cc1` [compound 414, (2S,4R)-1-((R)-2-(3-(2-(4-((1R,3R)-3-((R)-3-(4-(3-amino-6-(2-hydroxyphenyl)pyridazin-4-yl)-1 H-pyrazol-1-yl)but-1-yn-1-yl)cyclobutoxy)piperidin-1-yl)ethoxy)isoxazol-5-yl)-3-methylbutanoyl)-4-hydroxy-N-((S)-1-(4-(4-methylthiazol-5-yl)phenyl)ethyl)pyrrolidine-2-carboxamide], the Dmax under setting [3] is above 75%. Besides, the 50% degradation concentration (DC50) (degradation of BRM, read-out: BRM DC50) is below 2.5 nM.

On to `Cc1ncsc1-c1ccc([C@H](C)NC(=O)[C@@H]2C[C@@H](O)CN2C(=O)[C@H](c2cc(OCC[C@H]3CCN(C[C@H]4C[C@H](Oc5cc(N6C7CCC6CN(c6cc(-c8ccccc8O)nnc6N)C7)ccn5)C4)[C@@H](C)[C@H]3C)no2)C(C)C)cc1` (single isomer, unassigned) [compound 585], for which the maximal degradation (Dmax) under setting [6] is above 75%. Further, under setting [5], the DC50 lay within 2.5 to 10 nM.

In the case of `Cc1ncsc1-c1ccc([C@H](C)NC(=O)[C@@H]2C[C@@H](O)CN2C(=O)[C@@H](c2cc(OCC[C@H]3CCN(C[C@H]4C[C@H](Oc5cc(N6C7CCC6CN(c6cc(-c8ccccc8O)nnc6N)C7)ccn5)C4)[C@@H](C)[C@H]3C)no2)C(C)C)cc1` (single isomer, unassigned) [compound 586], under setting [6], the Dmax was above 75%. Also, the DC50 under setting [5] was below 2.5 nM.

In the case of `Cc1ncsc1-c1ccc([C@H](C)NC(=O)[C@@H]2C[C@@H](O)CN2C(=O)[C@@H](c2cc(N3CCC(C(C)N4CCC(O[C@H]5C[C@H](Oc6cc(N7C8CCC7CN(c7cc(-c9ccccc9O)nnc7N)C8)ccn6)C5)CC4)CC3)no2)C(C)C)cc1` (stereo partly drawn) [compound 644, (2S,4R)-1-((2R)-2-(3-(4-(1-(4-((1r,3r)-3-((4-(3-(3-amino-6-(2-hydroxyphenyl)pyridazin-4-yl)-3,8-diazabicyclo[3.2.1]octan-8-yl)pyridin-2-yl)oxy)cyclobutoxy)piperidin-1-yl)ethyl)piperidin-1-yl)isoxazol-5-yl)-3-methylbutanoyl)-4-hydroxy-N-((S)-1-(4-(4-methylthiazol-5-yl)phenyl)ethyl)pyrrolidine-2-carboxamide], the DC50 under setting [1] was below 2.5 nM. Besides, under setting [7], the Dmax is above 75%.

With `CC(=O)NCC#Cc1ncsc1-c1ccc([C@H](C)NC(=O)[C@@H]2C[C@@H](O)CN2C(=O)C(c2cc(OCCN3CCN(CCOc4cc(N5C6CCC5CN(c5cc(-c7ccccc7O)nnc5N)C6)ccn4)CC3)no2)C(C)C)cc1` (stereo partly drawn) [compound 175, (2S,4R)-N-((S)-1-(4-(4-(3-acetamidoprop-1-yn-1-yl)thiazol-5-yl)phenyl)ethyl)-1-(2-(3-(2-(4-(2-((4-(3-(3-amino-6-(2-hydroxyphenyl)pyridazin-4-yl)-3,8-diazabicyclo[3.2.1]octan-8-yl)pyridin-2-yl)oxy)ethyl)piperazin-1-yl)ethoxy)isoxazol-5-yl)-3-methylbutanoyl)-4-hydroxypyrrolidine-2-carboxamide], the 50% degradation concentration (DC50) under setting [1] was 2.5 to 10 nM. In addition, the Dmax under setting [2] was above 75%.

Regarding `Cc1ncsc1-c1ccc([C@H](C)NC(=O)[C@@H]2C[C@@H](O)CN2C(=O)[C@@H](c2cc(N3CCC(CN4CCC(O[C@H]5C[C@H](N6CCC(C(C)n7cc(-c8cc(-c9ccccc9O)nnc8N)cn7)CC6)C5)CC4)CC3)no2)C(C)C)cc1` (stereo partly drawn) [compound 648, (2S,4R)-1-((2R)-2-(3-(4-((4-((1r,3r)-3-(4-(1-(4-(3-amino-6-(2-hydroxyphenyl)pyridazin-4-yl)-1H-pyrazol-1-yl)ethyl)piperidin-1-yl)cyclobutoxy)piperidin-1-yl)methyl)piperidin-1-yl)isoxazol-5-yl)-3-methylbutanoyl)-4-hydroxy-N-((S)-1-(4-(4-methylthiazol-5-yl)phenyl)ethyl)pyrrolidine-2-carboxamide], the DC50 under setting [1] was below 2.5 nM. Further, the Dmax under setting [7] was above 75%.

Take `CCOC[C@H](NC(=O)[C@@H]1C[C@@H](O)CN1C(=O)[C@@H](c1cc(OCCN2CCN(CCOc3cc(N4C5CCC4CN(c4cc(-c6ccccc6O)nnc4N)C5)ccn3)CC2)no1)C(C)C)c1ccc(-c2scnc2C)cc1` [compound 128, (2S,4R)-1-((2R)-2-(3-(2-(4-(2-((4-(3-(3-amino-6-(2-hydroxyphenyl)pyridazin-4-yl)-3,8-diazabicyclo[3.2.1]octan-8-yl)pyridin-2-yl)oxy)ethyl)piperazin-1-yl)ethoxy)isoxazol-5-yl)-3-methylbutanoyl)-N-((R)-2-ethoxy-1-(4-(4-methylthiazol-5-yl)phenyl)ethyl)-4-hydroxypyrrolidine-2-carboxamide]: under setting [1], the DC50 is below 2.5 nM. For the same compound, the Dmax (BRM degradation, SW1573 cells, when tested at the top concentration of between 0.3 and 10 μM, read-out: Dmax (%) (% degraded)) is above 75%.
